Where two headings read alike, the source gives them in different places.
Key:
[1] = Ketoprofen added to adhesive solutions, mixed overnight, dissolved vs dispersed; format: physicochemical; conditions: 15% on a solids basis
[2] = for state of ketoprofen in dried adhesive film: dried 30 minutes at 60° C.
[3] = Cholesteryl dodecanoate added to adhesive solutions, mixed overnight at room temperature; format: physicochemical; conditions: 1% on a solids basis
Method: Cholesteryl dodecanoate, a model for a highly lipophilic drug, was added at 1% on a solids basis to the solutions of Example 7 and 8. These were then mixed overnight at room temperature.

[4] = film from conventional adhesive solution (Comparative Example 2)

| SMILES | dissolution of ketoprofen in adhesive solution ([1]; adhesive solution of Example 1 (cyclohexane, δ 16.8), tube B) | dissolution of ketoprofen in adhesive solution ([1]; adhesive solution of Example 2 (δ 19.0), tube A) | enthalpy of fusion by DSC [2, 4] | state of ketoprofen in dried adhesive film [2, 4] | state of ketoprofen in dried adhesive film ([2]; film from cyclohexane adhesive solution (Example 1)) | dissolution of model active in adhesive solution ([3]; solution of Example 7 (ethanol)) | dissolution of model active in adhesive solution ([3]; solution of Example 8 (δ 19.4)) |
| --- | --- | --- | --- | --- | --- | --- | --- |
| CC(C(=O)O)c1cccc(C(=O)c2ccccc2)c1 (stereo not shown) [ketoprofen] | most of the ketoprofen remained as a dispersed solid | completely dissolved | zero | no visible crystals | undissolved crystals | – | – |
| CCCCCCCCCCCC(=O)O[C@H]1CC[C@@]2(C)C(=CC[C@H]3[C@@H]4CC[C@H]([C@H](C)CCCC(C)C)[C@@]4(C)CC[C@@H]32)C1 [Cholesteryl dodecanoate] | – | – | – | – | – | large quantity of undissolved model active | completely soluble |
